Laboratory results: US7829575B2, “Methods for treating androgen receptor related disorders” (University of Cincinnati, priority 2006, dated 2010)
Where a SMILES comes first, the peptide text is derived from it. The star is where a group is joined. Cbz = O=C(OCc1ccccc1)*

Key:
LNCaP-ARR2-GFP cells = test: AR-regulated GFP expression in LNCaP-ARR2-GFP cells; format: cell-based; conditions: for GFP expression (AR agonist activity): SMEM, absence of DHT, DL3 at 25 nM or 20 μM; for cell growth: LNCaP-ARR2-GFP cells
[1] = test system: LNCaP cells (mutant AR, H877A); test: LNCaP cell growth, MTT staining; format: cell-based
Source text: (§1) Viable cells are stained with MTT (3-(4,5-dimethylthiazol-2-yl)-2,5-diphenyltetrazolium bromide). *, **, and *** designate p<0.05, <0.01, and 0.001, respectively, compared with controls.

LNCaP cells [2] = test: Cell cycle distribution and apoptosis, flow cytometry (propidium staining) and western blotting; format: cell-based; conditions: for increase of the portion of cells in G1 phase of cell cycle: regardless of presence or absence of DHT
Procedure: To further appreciate the effects of DL3 on cell growth, cell cycle distribution is determined using the flow cytometry analysis. After incubation of LNCaP cells for 24 hr in SMEM, the majority of cells are in the G1 phase of cell cycle. […] The cell cycle distribution is examined by the propidium staining method. […] Thus, DL3 induces GI arrest of prostate cancer cells in short term culture.

LNCaP cells [3] = test: PSA secretion, ELISA of culture supernatant; format: cell-based; conditions: for DHT-induced PSA production / PSA production under androgen-free conditions: 20 μM, 48 hr; for PSA production under androgen-free conditions: no DHT
Procedure: PSA in the culture supernatant is determined by using an enzyme-linked immunosorbent assay (ELISA) kit. PSA levels are normalized by cell density.

LNCaP cells [4] = test: Cellular PSA and AR protein, western blotting; format: cell-based
Procedure: In FIG. 6, cellular PSA and AR are analyzed by western blotting androgen-starved LNCaP cells.

LNCaP cells [5] = test: PSA and AR mRNA expression, RT-PCR; format: cell-based; conditions: 24 hr; for expression of AR mRNA: 20 μM DL3 or Bical
Procedure: In FIG. 7 LNCaP or 22Rv1 cells (A) are treated for 24 hr with DL3 and total RNA is extracted and analyzed by real-time RT-PCR. […] PSA mRNA in LNCaP cells is approximately 20 fold higher than that in 22Rv1 cells (FIG. 7A).

LNCaP cells [6] = test: AR protein stability and hsp70/hsp90 expression, western blotting; format: cell-based
Procedure: Cell lysates are prepared and analyzed by western blotting. […] To further determine how DL3 downregulates AR, LNCaP cells are incubated for 24 hr with DL3 in the absence or presence of proteasome inhibitor MG132.
Hsp70 and hsp90 are key molecular chaperones in cells. Along with several co-chaperones, hsp70 and hsp90 play critical roles in folding and assembling AR to a high-affinity ligand binding conformation and in regulating AR activation that occurs following hormone binding. Therefore, the possibility of whether the downregulation of AR protein by DL3 is mediated by its effects on hsp70 or hsp90 expression is investigated.
Thus, the effects of DL3 on hsp70 expression are further investigated in several other prostate cancer cell lines, including LAPC-4 (wildtype AR), 22Rv1 (mutant AR), and AR-negative cell lines PC-3, DU-145, PWE1-NB14 (ATCC), and PWE1-NB26 (ATCC). […] In FIG. 10, LAPC-4 (in SMEM) and all other (in CMEM) cells are treated for 24 hr and analyzed by western blotting. LNCaP cells are transfected for 24 hr with hsp70 or its control vector, then treated for 24 hr.

LNCaP cells [7] = test: PSA and AR mRNA expression, RT-PCR; format: cell-based; conditions: 6 hr
human PSA gene promoter = test: PSA promoter luciferase reporter (pGL3-PSA-luc) in LNCaP cells; conditions: 1 nM DHT, 24 hr
LNCaP-Flut-R cells [8] = test: Growth of Flut-refractory LNCaP cells, MTT; format: cell-based; conditions: 10 μM, 4 days, MTT (FIG. 2F)
Source text: as §1

LNCaP-Nilut-R cells [9] = test: Growth of Nilut-refractory LNCaP cells, MTT; format: cell-based; conditions: 10 μM, 4 days, MTT (FIG. 2F)
Source text: as §1

LNCaP-Flut-R cells [10] = test: PSA secretion, ELISA of culture supernatant; format: cell-based; conditions: 1 nM DHT, 10 μM, 48 hr (FIG. 5D)
Procedure: (§2) For the following discussion, see FIG. 5, where androgen-starved LNCaP, LNCaP-Flut-R, or LNCaP-Nilut-R cells are plated into 96-well plates at 2×10^4 cells/wells in SMEM and treated for 48 hr. PSA in the culture supernatant is determined by using an enzyme-linked immunosorbent assay (ELISA) kit. PSA levels are normalized by cell density. […] The DHT-induced production of PSA is reduced by approximately 50% in cells treated with 5 μM of DL3 (FIG. 5B). […] PSA production is elevated in LNCaP-Flut-R and LNCaP-Nilut-R cells compared with that in their parental cells (FIG. 5D).

LNCaP-Nilut-R cells [11] = test: PSA secretion, ELISA of culture supernatant; format: cell-based; conditions: 1 nM DHT, 10 μM, 48 hr (FIG. 5D)
Procedure: as §2

## CC(O)(CS(=O)(=O)c1ccc(F)cc1)C(=O)Nc1ccc(C#N)c(C(F)(F)F)c1 (stereo not drawn) [Bical, Bicalutamide, reference compound]
LNCaP-ARR2-GFP cells
  GFP expression (AR agonist activity): not
[1]
  effect on DHT-stimulated growth of LNCaP cells: inhibit DHT-stimulated growth of LNCaP cells in a dose-dependent manner
LNCaP cells [2]; 24 hr
  increase of the portion of cells in G1 phase of cell cycle: 15%
LNCaP cells [2]; 24 hr, DL3 at 20 μM
  induction of apoptosis: does not induce apoptosis
LNCaP cells [2]; data not shown
  survivin expression and caspase 3 cleavage (western blotting): alter neither survivin expression nor caspase 3 cleavage
LNCaP cells [3]; 1 nM DHT
  DHT-induced PSA production: reduce DHT-induced PSA production
LNCaP cells [3]
  PSA production under androgen-free conditions: stimulates PSA production
LNCaP cells [4]; 20 μM, 24 hr
  PSA protein expression under androgen-free culture conditions: enhances PSA expression
LNCaP cells [4]; 20 μM, 24 hr (FIG. 6C)
  expression of AR protein: moderately downregulated
LNCaP cells [4]; SMEM, 24 hr, Flut, Nilut, Bical at 20 μM
  DHT-induced PSA protein expression: moderately reduced
LNCaP cells [5]; 20 μM, 1 nM DHT
  DHT-stimulated PSA mRNA expression: only partially inhibits
LNCaP cells [5]; 20 μM, androgen-starved
  basal level of PSA mRNA: no significant effects
LNCaP cells [5]; 1 nM DHT
  expression of AR mRNA: partially downregulated

## C[C@]12CCC(=O)C[C@@H]1CC[C@@H]1[C@@H]2CC[C@]2(C)[C@@H](O)CC[C@@H]12 [DHT, dihydrotestosterone, reference compound]
LNCaP cells [3]
  PSA production: significantly elevated
LNCaP cells [5]; 1 nM DHT
  expression of AR mRNA: partially downregulated
LNCaP cells [6]; SMEM, 24 hr with DHT or CHX (FIG. 9B, lane 3 or 5 vs. lane 1)
  expression of hsp70: also reduced
LNCaP cells [7]
  AR mRNA expression: not significantly altered
Human PSA gene promoter
  enhancement of PSA promoter activity: approximately 5 fold

## CC(C)C(=O)Nc1ccc([N+](=O)[O-])c(C(F)(F)F)c1 [Flut, Flutamide]
LNCaP cells [2]; 24 hr
  increase of the portion of cells in G1 phase of cell cycle: 15%

## O=c1c(-c2ccc(O)cc2)coc2cc(O)cc(O)c12 [Genistein]
LNCaP-ARR2-GFP cells
  cell growth: significantly inhibited cell growth
  GFP expression (AR agonist activity): enhanced GFP expression

## CC(C)C[C@@H](C=O)NC(=O)[C@H](CC(C)C)NC(=O)[C@H](CC(C)C)NC(=O)OCc1ccccc1 [MG132, reference compound] (Cbz-Leu-Leu-Leu-aldehyde)
LNCaP cells [6]; 24 hr with DL3 in presence of MG132
  DL3-induced reduction of AR: reversed

## CC1(C)NC(=O)N(c2ccc([N+](=O)[O-])c(C(F)(F)F)c2)C1=O [Nilut, Nilutamide, reference compound]
LNCaP-Flut-R cells [8]
  growth of LNCaP-Flut-R cells: promotes growth
LNCaP-Nilut-R cells [9]
  growth of LNCaP-Nilut-R cells: promotes growth
LNCaP cells [3]; 1 nM DHT, 10 μM, 48 hr (FIG. 5D)
  PSA production in parental LNCaP cells: enhances PSA production
LNCaP cells [3]; 1 nM DHT
  DHT-induced PSA production: not
LNCaP cells [3]
  PSA production under androgen-free conditions: stimulates PSA production
LNCaP-Flut-R cells [10]
  PSA production in LNCaP-Flut-R cells: enhances PSA production
LNCaP-Nilut-R cells [11]
  PSA production in LNCaP-Nilut-R cells: enhances PSA production

## O=c1c(O)c(-c2ccc(O)c(O)c2)oc2cc(O)cc(O)c12 [Querstin]
LNCaP-ARR2-GFP cells
  cell growth: significantly inhibited cell growth
  GFP expression (AR agonist activity): enhanced GFP expression

## Oc1ccc(/C=C/c2cc(O)cc(O)c2)cc1 [Resveratol]
LNCaP-ARR2-GFP cells
  cell growth: significantly inhibited cell growth
  GFP expression (AR agonist activity): enhanced GFP expression
